Source: the supplement of paper PMC10307832

Columns and labels:
Test in all cases: relative viability (nuclei count vs DMSO), 5 days (fraction); higher = more cells survive
H3255 = conditions: first compound 0.1 µM
Procedure, shortened: (§1)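 Lung cancer cell lines in 1536-well plates got either a single drug or a fixed anchor-drug dose together with five library-drug doses (not always all listed) in √10 steps, by pin tool, on the day after seeding. Nuclei were counted after 5 days, and relative viability is the treated-to-vehicle ratio of nuclei counts. Values are medians of duplicate plates.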

UMC-11 = test system: UMC-11
Procedure, shortened: as §1

NCI-H1395 = test system: NCI-H1395
Procedure, shortened: as §1

LC-2-ad = test system: LC-2-ad
Procedure, shortened: as §1

NCI-H1993 = test system: NCI-H1993
Procedure, shortened: as §1

LU99A = test system: LU99A
Procedure, shortened: as §1

SW 900 = test system: SW 900
Procedure, shortened: as §1

NCI-H2170 = test system: NCI-H2170
Procedure, shortened: as §1

201T = test system: 201T
Procedure, shortened: as §1

NCI-H2126 = test system: NCI-H2126
Procedure, shortened: as §1

RERF-LC-KJ = test system: RERF-LC-KJ
Procedure, shortened: as §1

EMC-BAC-2 = test system: EMC-BAC-2
Procedure, shortened: as §1

Work on `Cc1cn(-c2cc(NC(=O)c3ccc(C)c(Nc4nccc(-c5cccnc5)n4)c3)cc(C(F)(F)F)c2)cn1` [Nilotinib] + COc1cc2c(Oc3ccc(NC(=O)C4(C(=O)Nc5ccc(F)cc5)CC4)cc3F)ccnc2cc1OCCCN1CCOCC1 [Foretinib] (partner 0.25 µM) yielded a relative viability (H3255) of 0.296, a relative viability (UMC-11; first compound 0.001 µM) of 0.896 and a relative viability (UMC-11; first compound 0.003162 µM) of 1.18. The relative viability (UMC-11; first compound 0.01 µM) was 1.23, the relative viability (UMC-11; first compound 0.1 µM) was 1.17 and the relative viability (NCI-H1395; first compound 0.001 µM) was 1.07. The relative viability (NCI-H1395; first compound 0.003162 µM) was 0.937, the relative viability (NCI-H1395; first compound 0.01 µM) was 0.953 and the relative viability (NCI-H1395; first compound 0.03162 µM) was 0.853. It also gave a relative viability (NCI-H1395; first compound 0.1 µM) of 1.02, a relative viability (LC-2-ad; first compound 0.001 µM) of 0.912 and a relative viability (LC-2-ad; first compound 0.003162 µM) of 1.08. The relative viability (LC-2-ad; first compound 0.01 µM) was 0.963, the relative viability (LC-2-ad; first compound 0.03162 µM) was 0.827 and the relative viability (LC-2-ad; first compound 0.1 µM) was 0.804. It also gave a relative viability (NCI-H1993; first compound 0.001 µM) of 0.823, a relative viability (NCI-H1993; first compound 0.003162 µM) of 0.871 and a relative viability (NCI-H1993; first compound 0.01 µM) of 0.989. For the same compound, the relative viability (NCI-H1993; first compound 0.03162 µM) was 0.742, the relative viability (NCI-H1993; first compound 0.1 µM) was 0.839 and the relative viability (LU99A; first compound 0.001 µM) was 0.784. It also gave a relative viability (LU99A; first compound 0.003162 µM) of 0.848, a relative viability (LU99A; first compound 0.01 µM) of 0.889 and a relative viability (LU99A; first compound 0.03162 µM) of 0.823. It also gave a relative viability (LU99A; first compound 0.1 µM) of 0.509, a relative viability (SW 900; first compound 0.001 µM) of 0.664 and a relative viability (SW 900; first compound 0.003162 µM) of 0.814. The relative viability (SW 900; first compound 0.01 µM) was 1.09, the relative viability (SW 900; first compound 0.03162 µM) was 0.639 and the relative viability (SW 900; first compound 0.1 µM) was 0.902. For the same compound, the relative viability (NCI-H2170; first compound 0.001 µM) was 1.03, the relative viability (NCI-H2170; first compound 0.003162 µM) was 1.14 and the relative viability (NCI-H2170; first compound 0.01 µM) was 1.24. For the same compound, the relative viability (NCI-H2170; first compound 0.03162 µM) was 0.995, the relative viability (NCI-H2170; first compound 0.1 µM) was 1.01 and the relative viability (201T; first compound 0.001 µM) was 0.9. It also gave a relative viability (201T; first compound 0.003162 µM) of 1.09, a relative viability (201T; first compound 0.01 µM) of 1.32 and a relative viability (201T; first compound 0.03162 µM) of 1.01. For the same compound, the relative viability (201T; first compound 0.1 µM) was 1.14, the relative viability (NCI-H2126; first compound 0.001 µM) was 1.08 and the relative viability (NCI-H2126; first compound 0.003162 µM) was 1.41. The relative viability (NCI-H2126; first compound 0.01 µM) was 1.26, the relative viability (NCI-H2126; first compound 0.03162 µM) was 1.2 and the relative viability (NCI-H2126; first compound 0.1 µM) was 1.08. The relative viability (RERF-LC-KJ; first compound 0.001 µM) was 0.967, the relative viability (RERF-LC-KJ; first compound 0.003162 µM) was 1.08 and the relative viability (RERF-LC-KJ; first compound 0.01 µM) was 0.924. For the same compound, the relative viability (RERF-LC-KJ; first compound 0.03162 µM) was 0.81, the relative viability (RERF-LC-KJ; first compound 0.1 µM) was 0.912 and the relative viability (EMC-BAC-2; first compound 0.001 µM) was 0.963. The relative viability (EMC-BAC-2; first compound 0.003162 µM) was 1.14, the relative viability (EMC-BAC-2; first compound 0.01 µM) was 1.13 and the relative viability (EMC-BAC-2; first compound 0.03162 µM) was 0.922. For the same compound, the relative viability (EMC-BAC-2; first compound 0.1 µM) was 1.02.
